Measurements taken from PubChem BioAssay AID1645865 (Buhrlage Lab, Dana-Farber Cancer Institute and Novartis …, 2021).
Calls of active or inactive are those of the source.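 The calls were made as follows: active = maximal inhibition of the USP30 enzyme reaching 30% or more across the dose series; inactive = the rest.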

Target: Ubiquitin carboxyl-terminal hydrolase 30 (Homo sapiens) (UniProt Q70CQ3)
Assay: inhibitors of ubiquitin-specific protease 30 deubiquitylating enzyme, concentration dependence, in vitro biochemical, validation of primary hits (AID 1645865)
Conditions: purified USP30, Ub-rhodamine cleavage, fluorescence, 2 h

Ubiquitin carboxyl-terminal hydrolase 30 (Homo sapiens), sequence (Q70CQ3 whole entry, looked up): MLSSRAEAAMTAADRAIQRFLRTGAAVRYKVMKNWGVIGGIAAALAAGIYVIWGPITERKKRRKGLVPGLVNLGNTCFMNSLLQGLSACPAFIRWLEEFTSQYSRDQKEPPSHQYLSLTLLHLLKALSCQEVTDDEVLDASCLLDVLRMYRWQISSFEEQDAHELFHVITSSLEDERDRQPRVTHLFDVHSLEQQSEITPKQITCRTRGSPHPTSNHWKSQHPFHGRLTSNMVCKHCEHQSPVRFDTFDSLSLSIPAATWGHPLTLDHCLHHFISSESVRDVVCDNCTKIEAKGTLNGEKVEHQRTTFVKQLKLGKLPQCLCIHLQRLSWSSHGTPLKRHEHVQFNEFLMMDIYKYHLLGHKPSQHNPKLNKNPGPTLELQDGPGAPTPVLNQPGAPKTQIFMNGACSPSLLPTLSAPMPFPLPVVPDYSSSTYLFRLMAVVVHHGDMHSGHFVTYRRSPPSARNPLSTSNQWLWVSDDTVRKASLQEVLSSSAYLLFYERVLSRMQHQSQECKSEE

SMILES	IC50
COc1ccccc1-c1nc(Cn2nnc(C(=O)Nc3cc(C)cc(C)c3)c2N)c(C)o1	39.7 µM
COc1ccc2[nH]cc(S(=O)(=O)c3ccc(C)c(F)c3)c(=O)c2c1	46.4 µM
Cc1ccc(-c2nc(Cn3cnc4ccccc4c3=O)cs2)cc1	4.83 µM
COc1cc(COc2ccc3c(C)c(CC(=O)N4CC[C@@]5(O)CCCC[C@H]5C4)c(=O)oc3c2C)cc(OC)c1OC	34.8 µM
O=C(NCCc1ccccn1)c1cc(-c2ccc(Br)cc2)n[nH]1	16.4 µM
Fc1ccc(Cn2ccc(-c3cnc(-c4ccccc4)s3)n2)cc1	> 50 µM (inactive)
CCn1cc2c(n1)c(=O)n(Cc1ccccc1)c(=O)n2CC(=O)Nc1ccc(OC)cc1	2.58 µM
Cc1cccc(NC(=O)Nc2ccc(C)n(CC(=O)Nc3ccccc3)c2=O)c1	4.62 µM
COc1ccc(CN2CCCC23CCCN(C(=O)CCc2cccnc2)C3)cc1F (stereo not drawn)	33.1 µM
COc1cccc(C(=O)NCC(=O)Nc2nc3ccccc3[nH]2)c1	34.3 µM
Cc1cc2nc(/C=C/c3ccccc3)n(Cc3cccc(F)c3)c2cc1C	> 50 µM (inactive)
N#Cc1ccccc1COC(=O)c1ccc2ccccc2n1	> 50 µM (inactive)
N#C/C(=C\c1ccc(-c2cc(Cl)ccc2Cl)o1)c1nnc2n1CCCCC2	> 50 µM (inactive)
CCOc1ccc(CCNC(=O)c2cccc3c2C(=O)N(CCOC)C3)cc1OCC	> 50 µM (inactive)
Cc1cc(C)n(-c2cccc(C(=O)Nc3ccc4c(c3)CCN4S(C)(=O)=O)c2)n1	> 50 µM (inactive)
O=C(COC(=O)c1ccc(Cl)cc1)Nc1ccc2[nH]c(=O)[nH]c2c1	3.98 µM
COC(=O)c1ccc(Cn2cnc3ccc(Br)cc3c2=O)o1	> 50 µM (inactive)
Cc1ccc(Cn2cc(-c3noc(-c4ccc[nH]4)n3)nn2)cc1	23.8 µM
Cc1cc(C)c2cc3c(nc2c1)OC(=O)N(Cc1ccco1)C3	23.2 µM
Cc1ccc(C(=O)NCCc2nc(-c3ccc4c(c3)OCO4)n[nH]2)cc1F	41.6 µM
O=C(NC1CCN(c2nc(-c3cccnc3)nc3ccccc23)CC1)c1cccnc1	> 50 µM (inactive)
O=C(c1cc2ccccc2o1)N1CC=C(c2ccccc2)CC1	> 50 µM (inactive)
CCc1cc(=O)n(CC(=O)Nc2cc(C)ccc2OC)c(N2CCOCC2)n1	26 µM
Cc1nc(SCC(=O)Nc2cc(Cl)ccc2C)c2oc3ccccc3c2n1	1.22 µM

SMILES	IC50
COc1ccc(C2CC(=O)Nc3n[nH]c(-c4ccccc4)c32)cc1OC (stereo not drawn)	18.8 µM
O=C(NCc1cccnc1)c1cnn2c(C(F)(F)F)cc(-c3ccccc3)nc12	> 50 µM (inactive)
Cc1cc(Cl)ccc1Nc1nc(Nc2cccc(F)c2)nc2nccnc12	> 50 µM (inactive)
O=C(NCc1ccccc1)c1ccc2c(=O)n(-c3ccccc3)c(=O)[nH]c2c1	16 µM
CCOC(=O)c1c(C)oc2nc(CSc3ccccc3)[nH]c(=O)c12	> 50 µM (inactive)
CC(OC(=O)CNC(=O)c1ccc(Br)cc1)C(=O)Nc1ccc2c(c1)OCCO2 (stereo not drawn)	28 µM
Cc1noc(-c2cc(=O)n(CC(=O)NCc3ccccc3)c3ccccc23)n1	> 50 µM (inactive)
CC(=O)O[C@H]1[C@]2(O)C[C@]34SS[C@](CO)(C(=O)N3[C@@H]2C[C@@]12O[C@@H](C)C(C)(C)C2=O)N(C)C4=O	2.25 µM
O=C(/C=C/c1ccc2c(c1)OCO2)Nc1nc2c(s1)COCC2	25.8 µM
CCOc1ccc2c(c1)c(=O)c(C(=O)c1ccc(C)cc1)cn2CC(=O)Nc1ccc(OC)c(OC)c1	0.732 µM
COCCCNC(=O)c1ccc(Cn2c(=O)c3ccccc3n(CC(=O)Nc3ccc(OC)cc3)c2=O)cc1	23.9 µM
O=C(NCc1cccnc1)c1cnn2c(C(F)(F)F)cc(-c3ccc(F)cc3)nc12	23.3 µM
CNC(=O)c1cc2nc(N(C)C)n(-c3ccc(F)cc3)c2s1	> 50 µM (inactive)
COc1ccc(NC(=O)C2Oc3ccc(C)cc3NC2=O)cc1Cl (stereo not drawn)	19.5 µM
COc1cccc2sc(N3CCN(c4nc5ccccc5s4)CC3)nc12	39.3 µM
COc1ccc(NC(=O)CC(=O)c2ccc([N+](=O)[O-])cc2)cc1S(=O)(=O)Nc1ccc(Cl)cc1	37.1 µM
CC(=O)N1CCOc2cc(S(=O)(=O)N3CCCC3c3cc(C)no3)ccc21 (stereo not drawn)	> 50 µM (inactive)
COc1ccc(-c2nnc(SCc3ccccc3C#N)o2)c(OC)c1	49.7 µM
O=S(=O)(c1ccccc1)N1CCN2Cc3ccccc3N(Cc3ccccc3)CC2C1 (stereo not drawn)	> 50 µM (inactive)
CC1CCN(S(=O)(=O)c2ccc3[nH]cc(C(=O)NCc4ccco4)c(=O)c3c2)CC1	> 50 µM (inactive)
COc1cccc(NC(=O)c2ccc(-c3csc(C)n3)cc2)c1	> 50 µM (inactive)
O=c1c2cnc3nc(-c4cccnc4)nn3c2ccn1CCc1ccccc1	> 50 µM (inactive)
COc1ccc(/C=C\c2nccc3c2[nH]c2ccccc23)cc1	> 50 µM (inactive)
O=C(CCn1c(=O)c2sccc2n(CC(=O)OCc2ccccc2)c1=O)NCc1ccc2c(c1)OCO2	22.9 µM
